Reference: PubChem BioAssay AID504779 (National Center for Advancing Translational Sciences (NCATS), 2011)

Test system: Caco-2 bidirectional permeability, LC-MS/MS efflux ratio
Test: Enhancers of SMN2 Splice Variant Expression: Efflux Ratio Profiling
Conditions: stronger effect = lower value
Description: Spinal muscular atrophy (SMA) is caused by insufficient levels of the survival motor neuron protein SMN. The SMN locus on chromosome 5q13 contains two inverted copies of SMN called SMN1 and SMN2 which are 99% identical at the amino acid level. SMN1 is a fully functional protein and SMN2 skips exon 7 90% of the time. Skipping of exon 7 produces non-functional protein product. 10% of the SMN2 protein includes exon 7 and is fully functional. In the SMA disease state, mutations in the SMN1 locus are the cause of the disease state. Because only 10% of SMN2 is of the fully functional form, it is not sufficient to overcome the deficiency produced by the loss of the SMN1 product. A therapy that either increase the amount of SMN2 product made or to increase the inclusion of exon 7 has been proposed for the treatment of SMA. After screening and medicinal chemistry efforts a probe was identified and is further characterized in this in vitro ADME assay. This bioassays provides profiling data on Caco-2 cell permeability of leads compounds developed for the HPGD project. […]
Prepare 1M HEPES: add 23.83g HEPES to 100ml of 0.85% NaCl Prepare HBSS+ buffer: add 12.8ml of 1M HEPES in 0.85% NaCl to 500ml HBSS buffer. […] The T0, LY and T90, LY plates are read by FlexStation 3 at excitation of 485 nm and emission of 535 nm to determine LY permeability. […]

- efflux ratio: 0.4
SMILES: O=C(O)C1CCN(c2nc(-c3ccc(Br)cc3)cs2)CC1
